Series [1] deals with SU86.86 cells. Description: qPCR, immunoblotting and flow cytometry of PD-L1 and MHC-I pathway expression in SU86.86 cells. The series is classed as cell-based, human. As for the experimental part: (§1) (See Bardeesy, N., et al. supra). The human PDAC cell lines SU86.86 ([…]), SW1990 ([…]), BXPC-3 ([…]), Miapaca-2 ([…]), Capan-1 ([…]), ASPC-1 ([…]), Hs766T ([…]), Colo357/FG ([…]), L3.6PL ([…]), Panc28 ([…]), Capan-2 ([…]), CF-Pac-1 ([…]), Panc3 (sex unknown), Panc1 ([…]), Panc48 (sex unknown), and HPAC ([…]) were from Mien-Chie Hung's lab stock. […] The BXPC-3, Miapaca-2, Capan-1, ASPC-1, Colo357/FG, L3.6PL, Panc28, Capan-2, CF-Pac-1, Panc3, Panc1, Panc48, and HPAC cell lines were cultured in DMEM/F-12 (Corning, 10-092-CV) supplemented with 10% FBS and 1% penicillin/streptomycin. Cells were grown in a humidified incubator with 5% CO2 at 37° C., and low-passage stocks were maintained in a centralized lab cell bank. Short tandem repeat profiling and mycoplasma tests were done by the Cytogenetics and Cell Authentication Core at MD Anderson Cancer Center.
Membranes were blocked with 10% non-fat milk in TBST and incubated with the primary antibody at 4° C. overnight, followed by incubation with the secondary antibody conjugated with horseradish peroxidase (HRP).
On the technique in general: Quantitative PCR measures a nucleic acid by following its amplification.

The target of series [2] is GR (Homo sapiens, UniProt P04150). Particulars: ChIP-qPCR; co-treatment with mifepristone 100 nM and dexamethasone 100 nM, 30 min; SU86.86. As for the experimental part:
SU86.86 cells were grown to 40% confluence in 15-cm dishes in RPMI with 10% FBS, followed by 72-hour incubation in phenol red-free RPMI supplemented with 5% charcoal-stripped FBS. […] Cells were cross-linked with 1% formaldehyde, quenched with glycine, and harvested. After cell lysis with ChIP lysis buffer, cells were digested with Micrococcal Nuclease and sonicated to achieve the majority of DNA fragments between 200 bp and 500 bp. […] Chromatin was eluted from GR ChIP following the manufacturer's protocol.

The subject of series [3] is HY24409 cells. Description: qPCR and flow cytometry of PD-L1, MHC-I and B2M in HY24409 cells. The series is classed as cell-based, mouse. The settings on record: MIFE 20 μM, 48 h. As to the method: as §1
Series [4] relates to HY24409 cells. Description: Cell cycle analysis after double thymidine block. The settings on record: flow cytometry; mifepristone 20 μM, 48 h pretreatment; unsynchronized and after release from double thymidine block. The series is classed as cell-based, mouse. As to the method:
Cell cycle analysis Cells were seeded in 6-well plates (2×10^5 cells per well) and treated with 2 mM thymidine (Sigma-Aldrich, T9250-1G) for 18 hours, fresh medium for 9 hours, and 2 mM thymidine again for 17 hours to arrest cells in G1/S phases for synchronization. Released cells were collected at the indicated time points by centrifugation, washed in cold PBS, resuspended in 1 ml of 70% ethanol, and stored at −20° C. overnight. Cells were then collected by centrifugation and washed two times with cold PBS. To ensure that only DNA was stained, cells were treated with 50 μl of 100 μg ml^−1 RNase (New England Biolabs, T3018L), and added 425 μl of cell staining buffer (2% FBS in PBS) and 25 μl of propidium iodide solution (BioLegend, 421301). After staining, samples were analyzed by flow cytometry. Cells were gated for PI staining and the cells in G1, S, and G2/M phases were quantitated using FlowJo software.
For orientation: A flow cytometer gives signals particle by particle.

In series [5] the test system is HY24409 cells. Description: Chemokine array of conditioned medium. The series is classed as cell-based, mouse. Particulars: mifepristone 20 μM, 48 hours. As for the experimental part:
Chemokine array was performed with conditioned medium from HY24409 cells treated with vehicle or mifepristone (20 μM, 48 hours) using the Proteome Profiler Mouse Chemokine Array Kit (R&D system, ARY020) following the manufacturer's instructions.

Series [6] has as its system orthotopic HY19636 tumors. Description: Female C57BL/6 mice bearing orthotopic HY19636 tumors. The series is classed as in vivo, mouse. As for the experimental part: Orthotopic pancreatic tumor size was determined by MRI. Subcutaneous tumor size was measured with a caliper. […] Animal body weight was measured throughout the study.

SMILES strings stand for the structures.

This note sets out measurements from patent US20250032506A1, “GLUCOCORTICOID RECEPTOR BLOCKADE WITH MIFEPRISTONE TO SENSITIZE PANCREATIC CANCER TO IMMUNOTHERAPY” (BOARD OF REGENTS, THE UNIVERSITY OF TEXAS SYSTEM, priority 2021, published 2025).

Sequence of GR (P04150 whole entry, the tested form may be a part): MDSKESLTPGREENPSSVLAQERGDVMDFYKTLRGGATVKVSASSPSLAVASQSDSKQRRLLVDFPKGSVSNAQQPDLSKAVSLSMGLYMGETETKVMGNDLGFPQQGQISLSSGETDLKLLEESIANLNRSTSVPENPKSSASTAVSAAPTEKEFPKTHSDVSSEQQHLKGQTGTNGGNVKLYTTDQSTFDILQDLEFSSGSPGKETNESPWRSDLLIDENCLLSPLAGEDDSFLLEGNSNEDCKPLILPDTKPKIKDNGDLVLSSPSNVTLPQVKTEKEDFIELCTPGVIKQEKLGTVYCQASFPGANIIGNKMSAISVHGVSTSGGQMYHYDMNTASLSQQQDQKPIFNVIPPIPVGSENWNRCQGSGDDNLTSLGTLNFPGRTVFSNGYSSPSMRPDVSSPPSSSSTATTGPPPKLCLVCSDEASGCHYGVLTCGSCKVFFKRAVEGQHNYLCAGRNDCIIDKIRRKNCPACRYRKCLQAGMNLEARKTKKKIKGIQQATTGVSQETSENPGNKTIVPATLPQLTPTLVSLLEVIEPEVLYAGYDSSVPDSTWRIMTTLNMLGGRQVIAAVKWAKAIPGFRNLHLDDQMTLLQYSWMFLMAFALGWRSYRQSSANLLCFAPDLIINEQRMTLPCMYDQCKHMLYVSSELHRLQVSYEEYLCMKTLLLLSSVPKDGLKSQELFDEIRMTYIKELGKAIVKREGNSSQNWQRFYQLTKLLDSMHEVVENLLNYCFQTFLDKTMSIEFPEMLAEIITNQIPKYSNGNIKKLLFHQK

Take `CC#C[C@]1(O)CC[C@H]2[C@@H]3CCC4=CC(=O)CCC4=C3[C@@H](c3ccc(N(C)C)cc3)C[C@@]21C` [mifepristone]: the PD-L1 protein result in series [1] (Western blot and flow cytometric analysis, MIFE 72 h) is given as “downregulated”. Besides, the “MHC-I and B2M proteins” value in series [1] (Western blot and flow cytometry, MIFE 72 h) is listed as “upregulation”. Moreover, in series [1] (qPCR, MIFE 20 μM, 72 h), the “mRNA levels of components in the MHC-I pathway, including HLA-A, HLA-B, HLA-C, B2M, SEC61B, and SEC61G” value was “increased”; the “mRNA levels of immune checkpoint ligands, including PD-L1, CD47, TDO, and SIGLEC15” value is “decreased”. Also, the “dexamethasone-induced binding of promoter sites to GR” value in series [2] is listed as “reversed”. For the same molecule, in series [3] (flow cytometry), the “surface PD-L1 levels” value was “decreased”; the “surface protein levels of MHC-I (H-2K^b) and B2M” value is “increased”. In series [3] (qPCR), the “MHC-I and B2M mRNA levels” value is reported as “increase”; the “PD-L1 mRNA levels” value was “decrease”. Also, the cell cycle profile result in series [4] is on record as “neither GR knockdown (FIGS. 11Q-11R) nor mifepristone treatment (FIGS. 11S-11T) altered the cell cycle profile”. The “chemokines secreted by HY24409 cells” value in series [5] is given as “no chemokines that showed a change after mifepristone treatment were found”. For the same molecule, in series [6], the body weight result was “without reducing body weight” and the tumor growth result was “markedly inhibited tumor growth”. The “sensitivity of tumors to dual ICB” value in series [6] (mifepristone with dual ICB) is recorded as “rendered sensitivity to dual ICB”.
